Experiment [1] has as its system β-catenin in d-U937 cells. In words: Accumulation of β catenin in d-U937 cells (assay m). Type of experiment: cell-based, human. As for the experimental part: U937 cells, a human monocytic cell line, are differentiated into macrophage-type cells by incubation with PMA (100 ng/mL) for between 48 to 72 hr. The cells are then incubated with either final concentrations of test compound or vehicle for 18 hr. The induction of β-catenin by the test compounds is stopped by replacing the media with 4% formaldehyde solution. Endogenous […] is neutralised by incubating with quenching buffer (100 μL, 0.1% sodium azide, 1% H2O2 in PBS with 0.05% Tween-20) for 20 min. The cells are washed with washing buffer (200 μL; PBS containing 0.05% Tween-20) and incubated with blocking solution (200 μL; 5% milk in PBS) for 1 hr, re-washed with washing buffer (200 μL) and then incubated overnight with anti-β-catenin antibody solution (50 μL) in 1% BSA/PBS (BD, Oxford, UK).
After washing with washing buffer (3×200 μL; PBS containing 0.05% Tween-20), cells are incubated with a HRP-conjugated secondary antibody solution (100 μL) in 1% BSA/PBS (Dako, Cambridge, UK) and the resultant signal is determined colourimetrically (OD: 450 nm with a reference wavelength of 655 nm) using TMB substrate (50 μL; R&D Systems, Abingdon, UK). This reaction is stopped by addition of 1N H2SO4 solution (50 μL). Cells are then washed with washing buffer and 2% crystal violet solution (50 μL) is applied for 30 min. After washing with washing buffer (3×200 μL), 1% SDS (100 μL) is added to each well and the plates are shaken lightly for 1 hr prior to measuring the absorbance at 595 nm (Varioskan® Flash, Thermo-Fisher Scientific).
The measured OD450-655 readings are corrected for cell number by dividing the OD450-655 by the OD595 readings.

The next experiment has as its target GSK 3α (Homo sapiens (Human), UniProt P49840). The experiment in a line: GSK 3α enzyme inhibition (FRET, Z-LYTE; Method 2). In kind it is biochemical. Particulars: read-out: IC50 Values for Enzyme Inhibition GSK3α. As for the experimental part: (§1) The enzyme inhibitory activities of compounds disclosed herein are determined by FRET using synthetic peptides labelled with both donor and acceptor fluorophores (Z-LYTE, Invitrogen Ltd., Paisley, UK).
The inhibitory activities of compounds of the invention against the GSK 3α enzyme isoform (Invitrogen), are evaluated by determining the level of activation I phosphorylation of the target peptide. The GSK3-α protein (500 ng/mL, 2.5 μL) is mixed with the test compound (2.5 μL at either 4 μg/mL, 0.4 μg/mL, 0.04 μg/mL, or 0.004 μg/mL) for 2 hr at RT. The FRET peptide (8 μM, 2.5 μL), which is a phosphorylation target for GSK3α, and ATP (40 μM, 2.5 μL) are then added to the enzyme\compound mixture and the resulting mixture incubated for 1 hr. Development reagent (protease, 5 μL) is added for 1 hr prior to detection in a fluorescence microplate reader (Varioskan® Flash, ThermoFisher Scientific).
(§2) In all cases, the site-specific protease cleaves non-phosphorylated peptide only and eliminates the FRET signal. Phosphorylation levels of each reaction are calculated using the ratio of coumarin emission (donor) over fluorescein emission (acceptor), for which high ratios indicate high phosphorylation and low ratios indicate low phosphorylation levels.
This method follows the same steps as Method 1 above, but utilises a shorter period of mixing of the test compound (105 minutes instead of 2 hours) with the GSK3-α protein. In addition, the concentrations of test compound employed are either 10 μg/mL, 1 μg/mL, 0.1 μg/mL, or 0.01 μg/mL

In another experiment the target is p38 MAPKα (MAPK14) (Homo sapiens (Human), UniProt Q16539). In words: p38 MAPKα enzyme inhibition (FRET, Z-LYTE; Method 2). Type of experiment: biochemical. As for the experimental part: as §1
The inhibitory activities of test compounds against the p38 MAPKα isoform (MAPK14: Invitrogen) are evaluated indirectly by determining the level of activation\phosphorylation of the down-stream molecule, MAPKAP-K2. The p38 MAPKα protein (80 ng/mL, 2.5 μL) is mixed with the test compound (2.5 μL of either 4 μg/mL, 0.4 μg/mL, 0.04 μg/mL or 0.004 μg/mL) for 2 hr at RT. […] The mixture is incubated for 1 hr at RT. Development reagent (protease, 5 μL) is added for 1 hr prior to detection in a fluorescence microplate reader (Vanoskan® Flash, ThermoFisher Scientific).
as §2

The target in a further experiment is c-Src (Homo sapiens (Human), UniProt P12931). In words: c-Src enzyme inhibition (FRET, Z-LYTE). In kind it is biochemical. As for the experimental part:
as §1
(§3) The relevant enzyme (3000 ng/mL or 2000 ng/mL respectively, 2.5 μL) is incubated with the test compound (either 1 μg/mL, 0.1 μg/mL, 0.01 μg/mL, or 0.001 μg/mL, 2.5 μL each) for 2 hr at RT. The FRET peptides (8 μM, 2.5 μL), and appropriate ATP solutions (2.5 μL, 800 μM for c-Src, and 60 μM ATP for Syk) are then added to the enzymes/compound mixtures and the mixture incubated for 1 hr. Development reagent (protease, 5 μL) is added for 1 hr prior to detection in a fluorescence microplate reader (Varioskan® Flash, ThermoFisher Scientific).
as §2

A further experiment concerns the target Syk (Homo sapiens (Human), UniProt P43405). In words: Syk enzyme inhibition (FRET, Z-LYTE). Type of experiment: biochemical. As for the experimental part:
as §1, §3, §2

SMILES strings stand for the structures.

c-Src, sequence (P12931 whole entry, looked up): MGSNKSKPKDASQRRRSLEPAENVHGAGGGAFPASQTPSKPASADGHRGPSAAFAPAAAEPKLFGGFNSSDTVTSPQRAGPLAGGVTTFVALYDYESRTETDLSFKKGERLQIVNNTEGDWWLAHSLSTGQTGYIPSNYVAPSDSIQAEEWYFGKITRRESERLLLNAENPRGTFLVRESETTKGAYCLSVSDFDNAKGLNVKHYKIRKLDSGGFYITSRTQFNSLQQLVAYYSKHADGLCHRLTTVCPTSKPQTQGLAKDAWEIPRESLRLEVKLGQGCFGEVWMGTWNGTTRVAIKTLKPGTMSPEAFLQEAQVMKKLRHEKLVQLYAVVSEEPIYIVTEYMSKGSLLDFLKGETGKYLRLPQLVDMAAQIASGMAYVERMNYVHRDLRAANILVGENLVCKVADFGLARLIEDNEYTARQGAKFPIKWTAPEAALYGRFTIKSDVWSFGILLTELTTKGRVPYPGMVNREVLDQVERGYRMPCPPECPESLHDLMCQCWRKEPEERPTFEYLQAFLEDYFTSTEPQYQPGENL
GSK 3α, sequence (P49840 whole entry, canonical isoform): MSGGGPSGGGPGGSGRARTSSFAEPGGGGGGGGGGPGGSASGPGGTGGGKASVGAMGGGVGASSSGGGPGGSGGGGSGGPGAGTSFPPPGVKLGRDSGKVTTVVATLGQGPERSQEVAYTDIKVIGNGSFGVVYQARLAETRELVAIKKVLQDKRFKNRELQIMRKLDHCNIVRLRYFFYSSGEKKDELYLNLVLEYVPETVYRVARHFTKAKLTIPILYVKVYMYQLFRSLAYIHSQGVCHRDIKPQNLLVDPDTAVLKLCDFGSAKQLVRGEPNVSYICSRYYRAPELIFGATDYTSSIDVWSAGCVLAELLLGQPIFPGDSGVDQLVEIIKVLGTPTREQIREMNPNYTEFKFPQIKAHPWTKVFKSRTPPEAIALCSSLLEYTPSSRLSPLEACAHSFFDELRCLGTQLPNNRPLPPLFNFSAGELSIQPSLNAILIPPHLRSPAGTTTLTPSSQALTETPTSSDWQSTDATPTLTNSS
p38 MAPKα (MAPK14), sequence (Q16539 whole entry, canonical isoform): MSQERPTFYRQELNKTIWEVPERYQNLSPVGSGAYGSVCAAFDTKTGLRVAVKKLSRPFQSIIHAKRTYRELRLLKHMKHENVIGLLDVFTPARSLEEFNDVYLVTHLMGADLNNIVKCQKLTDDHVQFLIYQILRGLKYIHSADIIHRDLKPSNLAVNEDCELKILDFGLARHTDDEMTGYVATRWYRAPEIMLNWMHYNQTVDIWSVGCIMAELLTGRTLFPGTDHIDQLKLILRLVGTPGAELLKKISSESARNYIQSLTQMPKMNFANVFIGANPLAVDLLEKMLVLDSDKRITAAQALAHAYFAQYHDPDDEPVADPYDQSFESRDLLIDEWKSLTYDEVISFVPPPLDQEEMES

By IC50 is commonly meant the concentration at which inhibition is half-maximal. In the case of `COc1cc(Nc2nccc(Oc3ccc(NC(=O)Nc4cc(C(C)(C)C)cc(NS(C)(=O)=O)c4OC)c4ccccc34)n2)cc(OCCOCCOCCO)c1` [83(c), N-(5-(tert-butyl)-3-(3-(4-((2-((3-(2-(2-(2-hydroxyethoxy)ethoxy)ethoxy)-5-methoxyphenyl)-amino)pyrimidin-4-yl)oxy)naphthalen-1-yl)ureido)-2-methoxyphenyl)methanesulfonamide], the “% β-catenin induction” value in experiment [1] (test compound 1 μg/mL) is 4%; in experiment [1] (test compound 5 μg/mL) it was 31%; in experiment [1] (test compound 10 μg/mL), 33%. Also, the IC50 at GSK 3α was determined as 738 nM.

In the case of `COc1c(NC(=O)Nc2ccc(Oc3ccnc(Nc4ccccc4)c3)c3ccccc23)cc(C(C)(C)C)cc1C(=O)NC1CCOCC1` [84(a), 3-[[4-[(2-Anilino-4-pyridyl)oxy]-1-naphthyl]carbamoylamino]-5-tert-butyl-2-methoxy-N-tetrahydropyran-4-yl-benzamide], the 50% inhibitory concentration (IC50) on p38 MAPKα (MAPK14) came out at 275 nM; on GSK 3α, 12600 nM.

For `C#Cc1cc(Nc2nccc(Oc3ccc(NC(=O)Nc4cc(F)cc(N5CCOCC5)c4)c4ccccc34)n2)cc(C(=O)NCCN2CCOCC2)c1` [Example 2, 3-Ethynv-5-((4-((4-(3-(3-fluoro-5-morpholinophenyl)ureido)naphthalen-1-yl)oxy)-pyrimidin-2-yl)amino)-N-(2-morpholinoethyl)benzamide], the entries for the “% β-catenin induction” value in experiment [1] (test compound 1 μg/mL) and in experiment [1] (test compound 5 μg/mL) were −6% and −4%, respectively. Also, the IC50 on c-Src is 45 nM; on p38 MAPKα (MAPK14), 37 nM; on GSK 3α, 12700 nM.

For `C#Cc1cc(Nc2nccc(Oc3ccc(NC(=O)Nc4cc(C(C)(C)C)cc(C(=O)NC)c4OC)c4ccccc34)n2)cc(C(=O)NCCN2CCOCC2)c1` [Example 9], the “% β-catenin induction” value in experiment [1] (test compound 1 μg/mL) was determined as 32%; in experiment [1] (test compound 5 μg/mL), 48%; in experiment [1] (test compound 10 μg/mL) it was 67%. For the same compound, the half-maximal inhibitory concentration (IC50) at c-Src turned out to be 8 nM; on GSK 3α, 1630 nM; against Syk, 27 nM.

As for `COc1cc(Nc2nccc(Oc3ccc(NC(=O)Nc4cc(C(C)(C)C)cc(NS(C)(=O)=O)c4OC)c4ccccc34)n2)cc(OCCOCCOCCN(C)C)c1` [Example 15, N-(5-(tert-Butyl)-3-(3-(4-((2-((3-(2-(2-(2-(dimethylamino)ethoxy)ethoxy)ethoxy)-5-methoxyphenyl)amino)pyrimidin-4-yl)oxy)naphthalen-1-yl)ureido)-2-methoxyphenyl)-methanesulfonamide], the entries for the “% β-catenin induction” value in experiment [1] (test compound 1 μg/mL), in experiment [1] (test compound 5 μg/mL) and in experiment [1] (test compound 10 μg/mL) were −2%, −6% and −17%, respectively. For the same compound, the IC50 at GSK 3α was 905 nM; on Syk it was 237 nM.

As for `CNC(=O)c1cc(NC(=O)Nc2ccc(Oc3ccnc(Nc4cc(OC)cc(OCCOCCOCCOC)c4)n3)c3ccccc23)cc(C(C)(C)C)c1` [Example 23, 3-(tert-Butyl)-5-(3-(4-((2-((3-methoxy-5-(2-(2-(2-methoxyethoxy)ethoxy)ethoxy)phenyl)-amino)pyrimidin-4-yl)oxy)naphthalen-1-yl)ureido)-N-methylbenzamide], the “% β-catenin induction” value in experiment [1] (test compound 1 μg/mL) is given as −4%; in experiment [1] (test compound 5 μg/mL) it was 10%; in experiment [1] (test compound 10 μg/mL), 9%. The 50% inhibitory concentration (IC50) at GSK 3α is 733 nM; against Syk, 147 nM.

In the case of `COCCOCCOCCOc1cc(Nc2nccc(Oc3ccc(NC(=O)Nc4cc(C(C)(C)C)cc(C(=O)NC5CC5)c4OC)c4ccccc34)n2)cc(OC)c1` [Example 33, 5-(tert-Butyl)-N-cyclopropyl-2-methoxy-3-(3-(4-((2-((3-methoxy-5-(2-(2-(2-methoxy-ethoxy)ethoxy)ethoxy)phenyl)amino)pyrimidin-4-yl)oxy)naphthalen-1-yl)ureido)-benzamide], the figures for the IC50 at c-Src, on GSK 3α and at Syk were 11 nM, 828 nM and 28 nM, respectively.

Regarding `COCCOCCOCCOc1cc(Nc2nccc(Oc3ccc(NC(=O)Nc4cc(C(C)(C)C)cc(C(=O)NCC(=O)OC)c4OC)c4ccccc34)n2)cc(OC)c1` [Example 37, Methyl 2-(5-(tert-butyl)-2-methoxy-3-(3-(4-((2-((3-methoxy-5-(2-(2-(2-methoxyethoxy)-ethoxy)ethoxy)phenyl)amino)pyrimidin-4-yl)oxy)naphthalen-1-yl)ureido)benzamido)-acetate], the “% β-catenin induction” value in experiment [1] (test compound 1 μg/mL) was determined as 4%; in experiment [1] (test compound 5 μg/mL), 38%; in experiment [1] (test compound 10 μg/mL) it was 46%. Moreover, the figures for the 50% inhibitory concentration (IC50) at c-Src, at GSK 3α and against Syk were 12 nM, 1520 nM and 43 nM, respectively.

Turning to `COc1c(NC(=O)Nc2ccc(Oc3ccnc(NCc4ccccn4)c3)c3ccccc23)cc(C(C)(C)C)cc1C(=O)NC1COC1` [Example 80, 5-(tert-Butyl)-2-methoxy-N-(oxetan-3-yl)-3-(3-(4-((2-((pyridin-2-ylmethyl)amino)pyridin-4-yl)oxy)naphthalen-1-yl)ureido)benzamide], the “% β-catenin induction” value in experiment [1] (test compound 1 μg/mL) came to 5%; in experiment [1] (test compound 5 μg/mL) it was 38%; in experiment [1] (test compound 10 μg/mL), 47%. Moreover, the figures for the half-inhibitory concentration (IC50) on c-Src, on p38 MAPKα (MAPK14) and on GSK 3α were 968 nM, 18 nM and 1250 nM, respectively.

As to `COc1cc(Nc2cc(Oc3ccc(NC(=O)Nc4cc(C(C)(C)C)cc(NS(C)(=O)=O)c4OC)c4ccccc34)ccn2)cc(C(=O)NCCN2CCCN(C)CC2)c1` [Example 85(p), 3-[[4-[[4-[[5-tert-Butyl-3-(methanesulfonamido)-2-methoxyphenyl]-carbamoylamino]-1-naphthyl]oxy]-2-pyridyl]amino]-5-methoxy-N-[2-(4-methyl-1,4-diazean-1-yl)ethyl]benzamide], the IC50 on GSK 3α is 1160 nM.

As to `COCCOCCOCC[S+]([O-])c1cc(Nc2cc(Oc3ccc(NC(=O)Nc4cc(C(C)(C)C)cc(NS(C)(=O)=O)c4OC)c4ccccc34)ccn2)cc(OC)c1` (centres unmarked) [Example 85(x), 1-[5-tert-Butyl-3-(methanesulfonamido)-2-methoxyphenyl]-3-[4-[2-[3-methoxy-5-[2-[2-(2-methoxyethoxy)ethoxy]ethylsufinyl]anilino]pyridin-4-yl]oxy-1-naphthyl]urea], the IC50 at GSK 3α was determined as 878 nM.

`COCCOCCOCCS(=O)(=O)c1cc(Nc2cc(Oc3ccc(NC(=O)Nc4cc(C(C)(C)C)cc(NS(C)(=O)=O)c4OC)c4ccccc34)ccn2)cc(OC)c1` [Example 85(y), 1-[5-tert-Butyl-3-(methanesulfonamido)-2-methoxyphenyl]-3-[4-[2-[3-methoxy-5-[2-[2-(2-methoxyethoxy)ethoxy]ethylsulfonyl]anilino]pyridin-4-yl]oxy-1-naphthyl]urea]: the figures for the half-inhibitory concentration (IC50) against c-Src, on GSK 3α and against Syk were 206 nM, 2630 nM and 1160 nM, respectively.
